For assay [1], the target named is T1, S-adenosylhomocysteine hydrolase (AHCY) (Homo sapiens, UniProt P23526).
T1 construct: human full-length AHCY, N-terminal 6xHis tag
The assay can be described thus: steady-state inhibition kinetics on purified recombinant AHCY, ADA-coupled, LC-MS quantification of inosine. The format is biochemical.

For assay [2], the target named is T1, S-adenosylhomocysteine hydrolase (AHCY). The assay can be described thus: enzymatic turnover of SAH by purified recombinant AHCY, LC-MS quantification of adenosine. It is filed as biochemical.

T1 sequence (P23526 whole entry): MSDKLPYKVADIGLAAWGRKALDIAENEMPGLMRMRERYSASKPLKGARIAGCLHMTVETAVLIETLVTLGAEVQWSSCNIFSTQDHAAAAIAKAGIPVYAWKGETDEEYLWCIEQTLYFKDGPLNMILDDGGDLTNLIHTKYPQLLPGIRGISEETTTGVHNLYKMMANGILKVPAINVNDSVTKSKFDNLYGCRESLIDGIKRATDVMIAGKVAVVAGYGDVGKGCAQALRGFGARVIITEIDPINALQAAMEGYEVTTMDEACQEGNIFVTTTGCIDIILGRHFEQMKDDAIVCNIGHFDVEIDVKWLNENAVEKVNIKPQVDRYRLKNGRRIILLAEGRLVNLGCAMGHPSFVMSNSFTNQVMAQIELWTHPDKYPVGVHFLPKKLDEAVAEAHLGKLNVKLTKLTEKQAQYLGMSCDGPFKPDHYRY

For the molecule `C[N+](C)(C)[O-]` [TMAO], the Ki in assay [1] worked out at 36.5 µM. As for `Nc1ncnc2c1ncn2[C@@H]1O[C@H](CSCC[C@H](N)C(=O)O)[C@@H](O)[C@H]1O` [SAH], the “enzymatic turnover of SAH by purified recombinant AHCY, LC-MS quantification of” value in assay [2] is given as “purified AHCY revealed that SAH is converted to adenosine in an enzyme dependent fashion”.

In general, Ki refers to the equilibrium dissociation constant of an inhibitor or competing ligand from its target.

These data come from paper PMC12390942, “Gut microbiota–derived metabolite trimethylamine N-oxide alters the host epigenome through inhibition of S-adenosylhomocysteine hydrolase” (The Journal of Biological Chemistry, 2025).
